What all share (format): binding
One data set addresses soluble MBP tag (Escherichia coli, UniProt P0AEX9). As to the kind of experiment: 1H STD NMR with soluble MBP tag as control.
For a further data set, the target named is MBP-MshC (Mycobacterium tuberculosis, UniProt P9WJM9). Description: NOESY / transferred NOESY in the presence of MBP-MshC. As to conditions: free in solution vs in the presence of MBP-MshC.
Data set [1] concerns the target M. tuberculosis MshC (MBP-MshC) (Mycobacterium tuberculosis, UniProt P9WJM9). As to the kind of experiment: 1H STD NMR in the presence of MBP-MshC. The note with it: for STD relative enhancement for H-2″ / STD relative enhancement for H-3″: normalized to adenine H-2, 20 μM MBP-MshC, 900 μM ligand.
The next data set addresses MshC (Mycobacterium tuberculosis, UniProt P9WJM9). Description: isothermal titration calorimetry. The note with it: ITC. In general terms: Isothermal titration calorimetry measures the heat released or taken up as one component is titrated into another.

Chain of M. tuberculosis MshC (MBP-MshC) (P9WJM9 whole entry): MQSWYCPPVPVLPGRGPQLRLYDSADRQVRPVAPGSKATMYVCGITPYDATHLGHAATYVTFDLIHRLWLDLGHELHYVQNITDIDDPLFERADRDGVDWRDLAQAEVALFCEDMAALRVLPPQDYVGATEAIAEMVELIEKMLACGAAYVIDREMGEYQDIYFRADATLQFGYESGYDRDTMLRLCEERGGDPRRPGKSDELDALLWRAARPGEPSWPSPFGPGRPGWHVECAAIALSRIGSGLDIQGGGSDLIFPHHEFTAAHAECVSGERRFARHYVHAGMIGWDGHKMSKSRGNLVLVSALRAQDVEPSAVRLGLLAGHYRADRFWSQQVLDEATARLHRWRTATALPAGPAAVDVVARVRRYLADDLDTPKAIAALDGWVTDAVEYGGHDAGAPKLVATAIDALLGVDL
Chain of MBP-MshC (P9WJM9 whole entry): as above
Chain of MshC (P9WJM9 whole entry): as above

In the case of `Nc1ncnc2c1ncn2[C@@H]1O[C@H](COS(=O)(=O)NC(=O)[C@@H](N)CS)[C@@H](O)[C@H]1O` [Compound 1, 5′-O-[N-(L-cysteinyl)sulfamoyl] adenosine], the “binding to the soluble MBP tag” value at soluble MBP tag is recorded as “No binding was observed”. For the same compound, the “NOESY/trNOESY cross peaks (binding)” value on MBP-MshC is “cross peaks changed in sign from positive to negative”. In addition, in data set [1], the “STD relative enhancement for H-2″” value amounted to 21% and the “STD relative enhancement for H-3″” value was 10%.
Turning to `Nc1ncnc2c1ncn2[C@@H]1O[C@H](COS(=O)(=O)NC(=O)[C@@H](N)CC(=O)O)[C@@H](O)[C@H]1O` [Compound 3], at soluble MBP tag, the “binding to the soluble MBP tag” value is “No binding was observed”. For the same compound, the “NOESY/trNOESY cross peaks (binding)” value on MBP-MshC is “did not contain any cross peaks”. Also, on MshC, the heats of binding entry is “No heats of binding were detected”. In data set [1] (in the presence of MshC, reference spectra S/N 170), the “signal-to-noise (S/N) ratio in the STD difference spectra” value turned out to be 20. Further, in data set [1], the “STD relative enhancement for H-2″” value was found to be 12% and the “STD relative enhancement for H-3″” value was “no effect could be observed”.

Source of the values: PMC3109356 (Bioorganic & medicinal chemistry letters, 2011).
